According to ChEMBL document CHEMBL5512674, “Novel Acyl Thiourea-Based Hydrophobic Tagging Degraders Exert Potent Anti-Influenza Activity through Two Distinct Endonuclease Polymerase Acidic-Targeted Degradation Pathways” (J Med Chem, 2024):
Active and inactive are the calls of the source. The calls are words filed in the database; no cut-off is given here.

Key:
[1] = Selectivity index, ratio of CC50 for cytotoxicity against human HEK293T cells to EC50 for anti-influenza activity against Influenza A virus A/WSN/33(H1N1) infected in HEK293T cells assessed as reduction in virus-induced cytopathic effect; assay type: toxicity, cell-based; details: read-out: Ratio CC50/EC50
[2] = biological target: von Hippel-Lindau disease tumor suppressor/Polymerase basic protein 1 (Influenza A virus (strain A/Puerto Rico/8/1934 H1N1)) (UniProt P03431+P40337); assay: PROTAC activity at Influenza A virus A/WSN/33(H1N1) flag tagged Polymerase basic protein 1/VHL (unknown origin) expressed in HEK293T cells assessed as degradation of PB1 expression at 1 ug/ml incubated for 24 hrs by Western blotting analysis; assay type: cell-based; details: dose 1.0 µg/ml
[3] = Stability in human plasma assessed as compound remaining measured after 5 mins by LC-MS/MS analysis; assay type: ADME, cell-free; details: read-out: Stability
[4] = Half life in dog liver microsomes preincubated for 5 mins followed by NADPH addition and measured for 45 mins by LC-MS analysis; assay type: ADME, Canis lupus familiaris, Microsome; details: time 50 min
[5] = Stability in human plasma assessed as compound remaining measured after 120 mins by LC-MS/MS analysis; assay type: ADME, cell-free; details: read-out: Stability
[6] = Stability in human plasma assessed as compound remaining measured after 15 mins by LC-MS/MS analysis; assay type: ADME, cell-free; details: read-out: Stability
[7] = Intrinsic clearance in human liver microsomes preincubated for 5 mins followed by NADPH addition and measured for 45 mins by LC-MS analysis; assay type: ADME, Microsome; details: time 50 min, read-out: CLH
[8] = Cytotoxicity against human HEK293T cells assessed as reduction in cell viability incubated for 48 hrs by CCK-8 assay; assay type: toxicity, cell-based, HEK-293T
[9] = biological target: T1, von Hippel-Lindau disease tumor suppressor/Polymerase acidic protein (Influenza A virus (A/Puerto Rico/8/1934(H1N1))) (UniProt P03433+P40337); assay: PROTAC activity at Influenza A virus A/WSN/33(H1N1) flag tagged Polymerase acidic protein/VHL (unknown origin) expressed in HEK293T cells assessed as degradation of PA expression at 10 uM by Western blotting analysis; assay type: cell-based; details: TDE = time-dependent effect
[10] = Hepatic clearance in dog liver microsomes preincubated for 5 mins followed by NADPH addition and measured for 45 mins by LC-MS analysis; assay type: ADME, Canis lupus familiaris, Microsome; details: time 50 min
Influenza A virus [11] = assay: Anti-influenza activity against Influenza A virus A/WSN/33(H1N1) infected in HEK293T cells assessed as reduction in virus-induced cytopathic effect incubated for 48 hrs by CCK-8 assay; assay type: functional, organism-based; details: HEK-293T
[12] = Half life in human plasma by LC-MS/MS analysis; assay type: ADME, cell-free
[13] = Hepatic clearance in human liver microsomes preincubated for 5 mins followed by NADPH addition and measured for 45 mins by LC-MS analysis; assay type: ADME, Microsome; details: time 50 min
[14] = biological target: von Hippel-Lindau disease tumor suppressor/Polymerase basic protein 2 (Influenza A virus (strain A/Puerto Rico/8/1934 H1N1)) (UniProt P40337+P03428); assay: PROTAC activity at Influenza A virus A/WSN/33(H1N1) flag tagged Polymerase basic protein 2/VHL (unknown origin) expressed in HEK293T cells assessed as degradation of PB2 expression at 0.1 to 10 uM incubated for 24 hrs by Western blotting analysis; assay type: cell-based; details: dose 0.1-10 µM
Influenza A virus [15] = assay: Anti-influenza activity against Influenza A virus A/WSN/33(H1N1) infected in MDCK cells assessed as downregulation of nucleoprotein expression at 100 nM incubated for 24 hrs by Western blotting analysis relative to control; assay type: functional
[16] = Hepatic extraction ratio in dog liver microsomes preincubated for 5 mins followed by NADPH addition and measured for 45 mins by LC-MS analysis; assay type: ADME, Canis lupus familiaris, Microsome; details: time 50 min, read-out: ERH
[17] = biological target: T1, von Hippel-Lindau disease tumor suppressor/Polymerase acidic protein (Influenza A virus (A/Puerto Rico/8/1934(H1N1))); assay: PROTAC activity at Influenza A virus A/WSN/33(H1N1) flag tagged Polymerase acidic protein/VHL (unknown origin) expressed in HEK293T cells assessed as degradation of PA expression at 10 uM incubated for 24 to 48 hrs by Western blotting analysis; assay type: cell-based; details: time 24-48 hrs
Influenza B virus = assay: Anti-influenza activity against Influenza B virus Victoria/2/87 infected in HEK293T cells assessed as reduction in virus-induced cytopathic effect incubated for 48 hrs by CCK-8 assay; assay type: functional, organism-based; details: Victoria/2/87, HEK-293T
[18] = biological target: Voltage-gated inwardly rectifying potassium channel KCNH2 (Homo sapiens, UniProt Q12809); assay: Inhibition of hERG; assay type: toxicity
[19] = biological target: T1, von Hippel-Lindau disease tumor suppressor/Polymerase acidic protein (Influenza A virus (A/Puerto Rico/8/1934(H1N1))); assay: PROTAC activity at Influenza A virus A/WSN/33(H1N1) flag tagged Polymerase acidic protein/VHL (unknown origin) expressed in HEK293T cells assessed as degradation of PA expression at 5 uM incubated for 24 hrs in presence of bortezomib by Western blotting analysis; assay type: cell-based
Influenza A virus [20] = assay: Anti-influenza activity against Influenza A virus A/WSN/33(H1N1) infected in MDCK cells assessed as downregulation of nucleoprotein expression incubated for 24 hrs by Western blotting analysis; assay type: functional, organism-based
[21] = biological target: T1, von Hippel-Lindau disease tumor suppressor/Polymerase acidic protein (Influenza A virus (A/Puerto Rico/8/1934(H1N1))); assay: PROTAC activity at Influenza A virus A/WSN/33(H1N1) flag tagged Polymerase acidic protein/VHL (unknown origin) expressed in HEK293T cells assessed as degradation of PA expression at 10 uM incubated for 72 hrs by Western blotting analysis; assay type: cell-based
Influenza A virus [22] = assay: Anti-influenza activity against Influenza A virus A/PR/8/34 (H1N1) infected in MDCK cells assessed as inhibition of viral growth at 0.8 nM incubated for 48 hrs by luciferase assay relative to control; assay type: functional
[23] = Hepatic extraction ratio in mouse liver microsomes preincubated for 5 mins followed by NADPH addition and measured for 45 mins by LC-MS analysis; assay type: ADME, Microsome; details: time 50 min, read-out: ERH
[24] = biological target: T1, von Hippel-Lindau disease tumor suppressor/Polymerase acidic protein (Influenza A virus (A/Puerto Rico/8/1934(H1N1))); assay: PROTAC activity at Influenza A virus A/WSN/33(H1N1) flag tagged Polymerase acidic protein/VHL (unknown origin) expressed in HEK293T cells assessed as degradation of PA expression incubated for 2 to 10 hrs in presence of CHX by Western blotting analysis; assay type: cell-based; details: time 2-10 hrs
[25] = Intrinsic clearance in dog liver microsomes preincubated for 5 mins followed by NADPH addition and measured for 45 mins by LC-MS analysis; assay type: ADME, Canis lupus familiaris, Microsome; details: time 50 min, read-out: CLH
Enterovirus = assay: Antiviral activity against Enterovirus CV-A16 infected in RD cells assessed as inhibition of viral replication incubated for 24 hrs by CCK-8 assay; assay type: functional, organism-based

Sequence of von Hippel-Lindau disease tumor suppressor/Polymerase basic protein 2 (Influenza A virus (strain A/Puerto Rico/8/1934 H1N1)) (P03428 whole entry, looked up): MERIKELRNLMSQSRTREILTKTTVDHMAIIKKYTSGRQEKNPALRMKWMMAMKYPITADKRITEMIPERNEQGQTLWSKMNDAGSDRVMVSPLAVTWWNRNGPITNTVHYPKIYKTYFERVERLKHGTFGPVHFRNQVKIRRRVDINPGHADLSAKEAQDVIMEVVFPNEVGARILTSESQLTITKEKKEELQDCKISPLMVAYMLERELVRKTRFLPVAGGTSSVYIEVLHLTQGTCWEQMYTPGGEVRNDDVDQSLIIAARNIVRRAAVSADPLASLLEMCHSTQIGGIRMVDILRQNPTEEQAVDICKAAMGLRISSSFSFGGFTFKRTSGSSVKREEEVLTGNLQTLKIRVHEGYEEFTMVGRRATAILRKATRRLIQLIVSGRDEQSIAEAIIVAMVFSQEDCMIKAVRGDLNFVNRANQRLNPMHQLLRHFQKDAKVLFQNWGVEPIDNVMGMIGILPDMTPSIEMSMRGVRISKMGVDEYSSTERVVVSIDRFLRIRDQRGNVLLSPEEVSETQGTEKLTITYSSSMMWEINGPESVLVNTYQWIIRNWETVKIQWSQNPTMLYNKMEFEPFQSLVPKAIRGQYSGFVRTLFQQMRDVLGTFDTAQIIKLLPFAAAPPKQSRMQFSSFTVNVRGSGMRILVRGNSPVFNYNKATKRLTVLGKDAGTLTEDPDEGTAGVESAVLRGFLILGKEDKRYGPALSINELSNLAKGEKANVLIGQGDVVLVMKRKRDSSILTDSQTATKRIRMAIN
Sequence of von Hippel-Lindau disease tumor suppressor/Polymerase basic protein 2 (Influenza A virus (strain A/Puerto Rico/8/1934 H1N1)) (P40337 whole entry, looked up): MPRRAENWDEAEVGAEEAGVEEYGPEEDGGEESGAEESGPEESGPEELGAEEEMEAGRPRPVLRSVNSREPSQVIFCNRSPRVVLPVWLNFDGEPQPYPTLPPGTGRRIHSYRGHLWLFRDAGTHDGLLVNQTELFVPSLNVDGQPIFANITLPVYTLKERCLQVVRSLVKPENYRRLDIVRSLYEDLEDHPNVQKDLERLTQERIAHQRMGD
Sequence of von Hippel-Lindau disease tumor suppressor/Polymerase basic protein 1 (Influenza A virus (strain A/Puerto Rico/8/1934 H1N1)) (P03431 whole entry, looked up): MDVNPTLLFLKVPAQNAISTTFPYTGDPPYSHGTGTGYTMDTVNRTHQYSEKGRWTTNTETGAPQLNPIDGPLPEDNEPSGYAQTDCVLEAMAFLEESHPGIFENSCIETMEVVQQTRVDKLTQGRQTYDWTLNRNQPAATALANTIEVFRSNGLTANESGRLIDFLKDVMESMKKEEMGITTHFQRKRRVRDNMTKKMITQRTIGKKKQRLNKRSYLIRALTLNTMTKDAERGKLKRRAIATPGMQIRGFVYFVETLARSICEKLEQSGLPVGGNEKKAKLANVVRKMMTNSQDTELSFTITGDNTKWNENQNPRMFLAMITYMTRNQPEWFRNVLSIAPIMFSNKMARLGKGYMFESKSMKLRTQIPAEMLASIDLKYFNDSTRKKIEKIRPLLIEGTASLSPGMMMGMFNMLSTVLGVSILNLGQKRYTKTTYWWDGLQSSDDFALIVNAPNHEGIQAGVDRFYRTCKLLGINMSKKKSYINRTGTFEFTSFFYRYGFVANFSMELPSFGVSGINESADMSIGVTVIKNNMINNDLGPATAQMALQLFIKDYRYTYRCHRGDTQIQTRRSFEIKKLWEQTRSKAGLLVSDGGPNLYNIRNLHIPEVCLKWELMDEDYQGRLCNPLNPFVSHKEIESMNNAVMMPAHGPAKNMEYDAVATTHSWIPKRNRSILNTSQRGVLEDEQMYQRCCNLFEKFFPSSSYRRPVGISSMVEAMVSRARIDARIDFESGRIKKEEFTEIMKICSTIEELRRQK
Sequence of von Hippel-Lindau disease tumor suppressor/Polymerase basic protein 1 (Influenza A virus (strain A/Puerto Rico/8/1934 H1N1)) (P40337 whole entry, looked up): as the sequence (P40337 whole entry, looked up) above
Sequence of Voltage-gated inwardly rectifying potassium channel KCNH2 (Q12809 whole entry): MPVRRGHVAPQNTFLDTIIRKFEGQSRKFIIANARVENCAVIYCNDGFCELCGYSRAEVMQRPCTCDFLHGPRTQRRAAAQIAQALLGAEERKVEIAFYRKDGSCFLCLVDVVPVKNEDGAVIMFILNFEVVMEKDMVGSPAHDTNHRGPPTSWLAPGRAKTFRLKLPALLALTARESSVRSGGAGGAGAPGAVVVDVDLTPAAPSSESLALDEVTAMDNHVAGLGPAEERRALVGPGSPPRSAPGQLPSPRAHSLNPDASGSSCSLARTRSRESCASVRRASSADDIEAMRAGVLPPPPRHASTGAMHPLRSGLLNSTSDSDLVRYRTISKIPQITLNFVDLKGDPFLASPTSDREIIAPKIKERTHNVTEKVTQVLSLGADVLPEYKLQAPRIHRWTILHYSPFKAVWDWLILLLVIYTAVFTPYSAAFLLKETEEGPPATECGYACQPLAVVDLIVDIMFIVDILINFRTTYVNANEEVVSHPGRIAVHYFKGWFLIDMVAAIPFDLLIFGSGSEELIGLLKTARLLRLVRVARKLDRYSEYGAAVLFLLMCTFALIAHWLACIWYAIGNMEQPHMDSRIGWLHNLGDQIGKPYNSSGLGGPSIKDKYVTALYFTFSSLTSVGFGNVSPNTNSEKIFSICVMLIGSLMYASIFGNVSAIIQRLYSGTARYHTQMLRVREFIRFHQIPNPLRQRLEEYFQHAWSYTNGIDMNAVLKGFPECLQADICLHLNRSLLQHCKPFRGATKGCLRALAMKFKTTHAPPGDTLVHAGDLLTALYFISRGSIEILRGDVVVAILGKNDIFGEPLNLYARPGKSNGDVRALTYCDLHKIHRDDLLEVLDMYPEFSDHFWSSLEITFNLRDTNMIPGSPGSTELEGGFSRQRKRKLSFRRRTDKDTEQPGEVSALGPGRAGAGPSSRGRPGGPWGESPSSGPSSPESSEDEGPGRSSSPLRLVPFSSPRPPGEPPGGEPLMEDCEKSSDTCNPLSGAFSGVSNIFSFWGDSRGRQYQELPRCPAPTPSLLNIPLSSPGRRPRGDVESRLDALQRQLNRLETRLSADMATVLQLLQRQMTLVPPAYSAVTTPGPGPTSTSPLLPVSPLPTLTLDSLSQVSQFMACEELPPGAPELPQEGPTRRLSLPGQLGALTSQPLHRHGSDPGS

CC(C)(C)OC(=O)NCCCC[C@H](NC(=O)OC(C)(C)C)C(=O)NCCCCCCCC(=O)Nc1ccc(NC(=S)NC(=O)c2ccc(C(C)(C)C)cc2)cc1
selectivity ratio [1]: > 6670 | Activity [2]: inactive | remaining at 5 min [3]: 96.8% | half-life [4]: 0.326 h | remaining at 2 h [5]: 72% | remaining at 0.25 h [6]: 109% | CLint scaled [7]: 137 mL/min/kg | CC50 at 48 h [8]: > 100000 nM | Activity [9]: Tde | CLhep predicted [10]: 26.3 mL/min/kg | EC50 (Influenza A virus [11]): 15 nM | half-life [12]: 4.09 h | CLhep predicted [13]: 18 mL/min/kg | Activity [14]: inactive | Activity (Influenza A virus [15]): 35% | hepatic extraction ratio at 0.75 h [16]: 0.851 | Activity [17]: Active | EC50 (Influenza B virus): 67 nM | inhibition (INH) [18]: Not Active | Activity [19]: inactive | Activity (Influenza A virus [20]): Dose-Dependent Effect | Activity [21]: Active | inhibition at 0.0008 µM (Influenza A virus [22]): 82% | hepatic extraction ratio at 0.75 h [23]: 0.654 | Activity [24]: Active | CLint scaled [25]: 177 mL/min/kg | Activity (Enterovirus): Active
